Values of other authors in patent US20130195925A1, “ANTI AGING APPLICATION AND METHOD FOR TREATING AGING” (VASKIN, LLC, priority 2011, published 2013).

How the values were obtained:
[1] = thought to be; compared with vitamin E
[2] = tested on: UVB-induced pigmented skins of brownish guinea pigs; settings: 0.5% Glabridin solution applied topically; backs of brownish guinea pigs
[3] = tested on: co-culture model of melanocytes and keratinocytes; settings: fluorochrome transfer, flow cytometry
[4] = tested on: stem cell factor; settings: human keratinocyte cell culture
[5] = tested on: wounds; settings: solution containing 5%
[6] = in vivo
[7] = in vivo; remark: listed apart in the source

## O=C(O[C@@H]1Cc2c(O)cc(O)cc2O[C@@H]1c1cc(O)c(O)c(O)c1)c1cc(O)c(O)c(O)c1 [EGCG, Epigallocatechin galate]
[1]
  power for neutralizing free radicals relative to vitamin E: 200 times

## CC1(C)C=Cc2c(ccc3c2OC[C@@H](c2ccc(O)cc2O)C3)O1 [Glabridin]
[2]
  pigmentation induced by UVB radiation: significantly reduced pigmentation

## NC(=O)c1cccnc1 [Niacinamide]
[3]
  downregulation of the amount of melanosomes transferred: 35%-68%

## COc1cc(CCC(=O)CC(=O)CCc2ccc(O)c(OC)c2)ccc1O [Tetrahydrocurcumin]
other
  safety for topical use: no irritant or sensitization side effects

## C=CCCCCCCCCC(=O)N[C@@H](Cc1ccccc1)C(=O)O [Undecylenoyl phenylalanine]
[4]
  gene expression and protein release of stem cell factor: suppresses

## CC(=O)Oc1c(C)c(C)c2c(c1C)CCC(C)(CCC[C@H](C)CCC[C@H](C)CCCC(C)C)O2 (some centres unmarked) [Vitamin E acetate, Tocopheryl acetate]
[5]
  wound healing time: decreased the healing time required

## O=c1cc(CO)occ1O [kojic acid]
[6]
  dermatitis: can lead to dermatitis in some people
[7]
  carcinogenic properties: may have some carcinogenic properties
